In BindingDB's records for PubMed 9152366 (University of California San Francisco, 1997) one finds Ki data, which are given here for one compound.

“And” between values parts separate entries of the source, which are not always exact repeats. Identical values can stand only once. Bridge positions count the residues as written; N and C are the ends. Square brackets hold non-standard residues; d marks the D form. Peptide text beside a SMILES is read from it. Nle = CCCC[C@H](N)C(=O)O

The target of assay [1] is T1, Vasoactive intestinal polypeptide receptor 2 (Homo sapiens, UniProt P41587).
T1 sequence (P41587 whole entry): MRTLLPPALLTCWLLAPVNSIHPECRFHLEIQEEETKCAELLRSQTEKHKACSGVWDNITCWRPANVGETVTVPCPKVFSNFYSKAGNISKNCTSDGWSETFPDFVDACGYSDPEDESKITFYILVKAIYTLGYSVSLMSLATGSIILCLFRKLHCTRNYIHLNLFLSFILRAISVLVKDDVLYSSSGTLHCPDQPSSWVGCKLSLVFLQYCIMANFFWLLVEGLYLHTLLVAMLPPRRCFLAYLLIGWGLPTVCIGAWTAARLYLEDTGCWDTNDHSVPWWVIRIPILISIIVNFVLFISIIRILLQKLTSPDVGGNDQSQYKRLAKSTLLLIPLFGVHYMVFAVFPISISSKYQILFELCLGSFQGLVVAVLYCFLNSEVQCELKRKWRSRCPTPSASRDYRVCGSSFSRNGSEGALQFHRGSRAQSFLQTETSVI

The next assay concerns the target T2, VIP peptides (Homo sapiens, UniProt P01282).
T2 sequence (P01282 whole entry): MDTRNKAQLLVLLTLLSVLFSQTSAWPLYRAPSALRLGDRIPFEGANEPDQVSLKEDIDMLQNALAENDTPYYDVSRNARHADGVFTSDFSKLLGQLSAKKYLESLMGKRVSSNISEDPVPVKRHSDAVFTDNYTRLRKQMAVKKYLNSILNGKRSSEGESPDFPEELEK

For orientation: Ki means a dissociation constant, usually derived from enzyme kinetics or from competition with a known ligand. A lower Ki goes with tighter binding. For the compound `CCCC[C@H](NC(=O)[C@H](CCC(N)=O)NC(=O)[C@H](CCCCN)NC(=O)[C@H](CCCNC(=N)N)NC(=O)[C@H](CC(C)C)NC(=O)[C@H](CCCCN)NC(=O)[C@@H](NC(=O)[C@H](Cc1ccc(OC)cc1)NC(=O)[C@H](CC(N)=O)NC(=O)[C@H](CCC(=O)O)NC(=O)[C@@H](NC(=O)[C@H](Cc1ccccc1)NC(=O)[C@@H](NC(=O)[C@H](C)NC(=O)[C@H](CC(=O)O)NC(=O)[C@H](CO)NC(=O)[C@H](Cc1c[nH]cn1)NC(C)=O)C(C)C)[C@@H](C)O)[C@@H](C)O)C(=O)N[C@@H](C)C(=O)N[C@@H](C)C(=O)N[C@@H](CCCCN)C(=O)N[C@H]1CCCCNC(=O)C[C@@H](C(=O)N[C@@H](CC(C)C)C(=O)N[C@@H](CCCCN)C(=O)N[C@@H](CCCCN)C(N)=O)NC(=O)[C@H](CC(N)=O)NC(=O)[C@H](CC(C)C)NC(=O)[C@H](Cc2ccc(O)cc2)NC1=O` [CAS_150828-75-4] (Ac-HSDAVFTENY(Me)TKLRKQ[Nle]AAKKYLNDLKK-NH2; lactam 21-25), the Ki is 16 nM and 9.6 nM in assay [1]; 3.4 nM at VIP peptides.
